Reference: patent publication US20090062294A1, “HETEROARYL-SUBSTITUTED UREA MODULATORS OF FATTY ACID AMIDE HYDROLASE” (priority 2007, published 2009)
pIC50: −log10 of the molar value. Where a name gives a salt, the structure may show the parent alone.

Legend:
FAAH = biological target: T1, FAAH (Homo sapiens, UniProt O00519); assay: Assay Method 1: FAAH assay, 3H-anandamide hydrolysis in homogenate of T84 cells or SK-N-MC cells transfected with human FAAH; type: biochemical; settings: average of results, > = solubility limit or highest concentration tested
T1 sequence (O00519 1-579): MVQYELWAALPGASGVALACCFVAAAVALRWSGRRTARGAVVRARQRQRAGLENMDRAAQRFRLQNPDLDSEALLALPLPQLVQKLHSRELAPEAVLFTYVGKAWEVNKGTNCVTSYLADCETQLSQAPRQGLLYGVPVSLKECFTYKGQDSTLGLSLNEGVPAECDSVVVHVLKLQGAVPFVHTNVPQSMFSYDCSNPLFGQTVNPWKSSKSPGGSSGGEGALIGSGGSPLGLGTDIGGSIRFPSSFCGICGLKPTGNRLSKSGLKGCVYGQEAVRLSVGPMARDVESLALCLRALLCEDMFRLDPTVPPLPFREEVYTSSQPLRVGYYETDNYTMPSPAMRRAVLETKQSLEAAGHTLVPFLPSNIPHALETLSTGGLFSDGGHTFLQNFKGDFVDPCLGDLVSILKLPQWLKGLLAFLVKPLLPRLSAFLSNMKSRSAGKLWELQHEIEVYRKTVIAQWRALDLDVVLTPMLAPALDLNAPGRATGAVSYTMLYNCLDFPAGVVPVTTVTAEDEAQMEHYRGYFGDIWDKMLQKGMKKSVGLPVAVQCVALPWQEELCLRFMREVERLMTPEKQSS
Description: A. Transfection of Cells with Human FAAH
(§1) A 10-cm tissue culture dish with a confluent monolayer of SK—N-MC cells was split 2 days (d) prior to transfection. Using sterile technique, the media was removed and the cells were detached from the dish by the addition of trypsin. One fifth of the cells were then placed onto a new 10-cm dish. Cells were grown in a 37° C. incubator with 5% CO2 in Minimal Essential Media Eagle with 10% Fetal Bovine Serum. After 2 d, cells were approximately 80% confluent. These cells were removed from the dish with trypsin and pelleted in a clinical centrifuge. The pellet was re-suspended in 400 μL complete media and transferred to an electroporation cuvette with a 0.4 cm gap between the electrodes. Supercoiled human FAAH cDNA (1 μg) was added to the cells and mixed. The voltage for the electroporation was set at 0.25 kV, and the capacitance was set at 960 μF. After electroporation, the cells were diluted into complete media (10 mL) and plated onto four 10-cm dishes. Because of the variability in the efficiency of electroporation, four different concentrations of cells were plated. The ratios used were 1:20, 1:10, and 1:5, with the remainder of the cells being added to the fourth dish. The cells were allowed to recover for 24 h before adding the selection media (complete media with 600 μg/mL G418). After 10 d, dishes were analyzed for surviving colonies of cells. Dishes with well-isolated colonies were used. Cells from individual colonies were isolated and tested.
(§2) T84 frozen cell pellets or transfected SK—N-MC cells (contents of 1×15 cm culture dishes) were homogenized in 50 mL of FAAH assay buffer (125 mM Tris, 1 mM EDTA, 0.2% Glycerol, 0.02% Triton X-100, 0.4 mM Hepes, pH 9). The assay mixture consisted of 50 μL of the cell homogenate, 10 μL of the test compound, and 40 μL of anandamide [1-^3H-ethanolamine] (^3H-AEA, Perkin-Elmer, 10.3 Ci/mmol), which was added last, for a final tracer concentration of 80 nM. The reaction mixture was incubated at rt for 1 h. During the incubation, 96-well Multiscreen filter plates (catalog number MAFCNOB50; Millipore, Bedford, Mass., USA) were loaded with 25 μL of activated charcoal (Multiscreen column loader, catalog number MACL09625, Millipore) and washed once with 100 μL of MeOH. Also during the incubation, 96-well DYNEX MicroLite plates (catalog number NL510410) were loaded with 100 μL of MicroScint40 (catalog number 6013641, Packard Bioscience, Meriden, Conn., USA). After the 1 h incubation, 60 μL of the reaction mixture were transferred to the charcoal plates, which were then assembled on top of the DYNEX plates using Centrifuge Alignment Frames (catalog number MACF09604, Millipore). The unbound labeled ethanolamine was centrifuged through to the bottom plate (5 min at 2000 rpm), which was preloaded with the scintillant, as described above. The plates were sealed and left at rt for 1 h before counting on a Hewlett Packard TopCount.
(§3) Compounds were tested in free base, hydrochloride salt, and/or trifluoroacetic acid salt forms.

rat FAAH = biological target: T2, rat FAAH (Rattus norvegicus, UniProt P97612); assay: Assay Method 2: FAAH assay, 3H-anandamide hydrolysis in homogenate of SK-N-MC cells transfected with rat FAAH; type: biochemical; settings: average of results, > = solubility limit or highest concentration tested
T2 sequence (P97612 1-579): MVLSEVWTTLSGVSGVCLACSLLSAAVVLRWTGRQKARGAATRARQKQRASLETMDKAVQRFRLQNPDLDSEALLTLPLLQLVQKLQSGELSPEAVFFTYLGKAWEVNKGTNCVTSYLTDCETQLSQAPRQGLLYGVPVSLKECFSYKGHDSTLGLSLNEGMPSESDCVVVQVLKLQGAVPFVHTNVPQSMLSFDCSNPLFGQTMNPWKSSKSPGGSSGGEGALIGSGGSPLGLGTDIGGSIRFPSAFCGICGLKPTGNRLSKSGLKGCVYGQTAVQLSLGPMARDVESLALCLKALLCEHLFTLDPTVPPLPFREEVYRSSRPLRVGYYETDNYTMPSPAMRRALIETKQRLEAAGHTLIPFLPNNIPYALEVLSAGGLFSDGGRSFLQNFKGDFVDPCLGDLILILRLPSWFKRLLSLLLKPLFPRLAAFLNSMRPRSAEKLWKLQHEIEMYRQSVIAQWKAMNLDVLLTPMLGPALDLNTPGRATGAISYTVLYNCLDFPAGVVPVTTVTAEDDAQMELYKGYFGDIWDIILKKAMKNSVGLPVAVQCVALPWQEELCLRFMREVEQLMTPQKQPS
Description: A. Transfection of Cells with Rat FAAH
as §1, with “rat” for “human”
as §2, §3

SMILES	pIC50 (FAAH)	pIC50 (rat FAAH)
N#Cc1ccc(Oc2cccc(CN3CCN(C(=O)Nc4noc5ccccc45)CC3)c2)cc1 [Example 125, 4-[3-(4-Cyano-phenoxy)-benzyl]-piperazine-1-carboxylic acid benzo[d]isoxazol-3-ylamide]	7.82	7.92
O=C(Nc1cccnn1)N1CCN(Cc2ccc3[nH]ccc3c2)CC1 [Example 201, 4-(1H-Indol-5-ylmethyl)-N-pyridazin-3-ylpiperazine-1-carboxamide]	< 5.00	< 5.00
O=C(Nc1noc2ccccc12)N1CCN(Cc2cccc(Oc3ccc(F)c(C(F)(F)F)c3)c2)CC1 [Example 28, 4-[3-(4-Fluoro-3-trifluoromethyl-phenoxy)-benzyl]-piperazine-1-carboxylic acid benzo[d]isoxazol-3-ylamide trifluoroacetic acid salt]	7.02	7.77
O=C(Nc1noc2ccccc12)N1CCN(Cc2cccc(Oc3ccc4c(c3)OC(F)(F)O4)c2)CC1 [Example 131, N-1,2-Benzisoxazol-3-yl-4-{3-[(2,2-difluoro-1,3-benzodioxol-5-yl)oxy]benzyl}piperazine-1-carboxamide]	8.15	8.40
O=C(Nc1nnn[nH]1)N1CCN(Cc2cccc(Oc3cccc(OC(F)(F)F)c3)c2)CC1 [Example 173, N-1H-Tetrazol-5-yl-4-{3-[3-(trifluoromethoxy)phenoxy]benzyl}piperazine-1-carboxamide]	6.65	6.70
O=C(Nc1noc2ccccc12)N1CCN(Cc2cccc(Oc3ccccc3)c2)CC1 [Example 110, N-1,2-Benzisoxazol-3-yl-4-(3-phenoxybenzyl)piperazine-1-carboxamide]	7.35	7.38
O=C(Nc1noc2ccccc12)N1CCN(Cc2cccc(Oc3ccc(F)c(Cl)c3)c2)CC1 [Example 207, 4-[3-(3-Chloro-4-fluoro-phenoxy)-benzyl]-piperazine-1-carboxylic acid benzo[d]isoxazol-3-ylamide]	7.47	7.34
Cc1cc(NC(=O)N2CCN(Cc3cccc(Oc4ccc(Cl)cc4)c3)CC2)no1 [Example 164, 4-[3-(4-Chlorophenoxy)benzyl]-N-(5-methylisoxazol-3-yl)piperazine-1-carboxamide]	6.85	5.15
O=C(Nc1nn[nH]n1)N1CCN(Cc2ccc(Br)cc2)CC1 [Example 177, 4-(4-Bromo-benzyl)-piperazine-1-carboxylic acid (2H-tetrazol-5-yl)-amide]	5.30	5.77
O=C(Nc1nn[nH]n1)N1CCN(Cc2cccc(Oc3ccc(OCC(F)(F)F)cc3)c2)CC1 [Example 188, N-2H-Tetrazol-5-yl-4-{3-[4-(2,2,2-trifluoroethoxy)phenoxy]benzyl}-piperazine-1-carboxamide]	7.10	7.70
O=C(Nc1noc2ccccc12)N1CCN(Cc2cccc(C#Cc3ccc4c(c3)OCO4)c2)CC1 [Example 89, N-1,2-Benzisoxazol-3-yl-4-[3-(1,3-benzodioxol-5-ylethynyl)benzyl]-piperazine-1-carboxamide]	6.19	6.26
O=C(Nc1ccon1)N1CCN(Cc2cc3ccccc3o2)CC1 [Example 138, 4-(1-Benzofuran-2-ylmethyl)-N-isoxazol-3-ylpiperazine-1-carboxamide]	5.30	< 5.00
O=C(Nc1noc2ccccc12)N1CCN(Cc2cccc(Oc3cccc(OC(F)(F)F)c3)c2)CC1 [Example 29, 4-[3-(3-Trifluoromethoxy-phenoxy)-benzyl]-piperazine-1-carboxylic acid benzo[d]isoxazol-3-ylamide trifluoroacetic acid salt]	7.80	7.64
O=C(Nc1ccon1)N1CCN(Cc2cccc(Oc3ccc(F)c(C(F)(F)F)c3)c2)CC1 [Example 156, 4-{3-[4-Fluoro-3-(trifluoromethyl)phenoxy]benzyl}-N-isoxazol-3-ylpiperazine-1-carboxamide]	7.37	5.30
O=C(Nc1noc2ccccc12)N1CCN(Cc2cccc(Oc3cccc(Br)c3)c2)CC1 [Example 31, 4-[3-(3-Bromo-phenoxy)-benzyl]-piperazine-1-carboxylic acid benzo[d]isoxazol-3-ylamide trifluoroacetic acid salt]	7.66	7.77
O=C(Nc1ccc2nn[nH]c2c1)N1CCN(Cc2ccc3c(c2)OC(F)(F)O3)CC1 [Example 6, 4-(2,2-Difluoro-benzo[1,3]dioxol-5-ylmethyl)-piperazine-1-carboxylic acid (3H-benzotriazol-5-yl)-amide trifluoroacetic acid salt]	6.51	6.45
O=C(Nc1cnccn1)N1CCN(Cc2ccc(Br)c(F)c2)CC1 [Example 222, 4-(4-Bromo-3-fluorobenzyl)-N-pyrazin-2-ylpiperazine-1-carboxamide]	6.15	6.22
O=C(Nc1ccon1)N1CCC(Cc2cccc(C(F)(F)F)c2)CC1 [Example 26, 4-(3-Trifluoromethyl-benzyl)-piperidine-1-carboxylic acid isoxazol-3-ylamide]	5.30	6.00
O=C(Nc1cnccn1)N1CCN(Cc2cc3ccccc3o2)CC1 [Example 230, 4-Benzofuran-2-ylmethyl-piperazine-1-carboxylic acid pyrazin-2-ylamide]	5.40	5.22
